This assay relates to mouse gastric cancer cell line YTN16. Put plainly: YTN16 syngeneic mouse model: subcutaneous tumor size and tumor weight. The assay is classed as in vivo. The method, then:
The experiment was conducted by dividing the mice into a control group (Control), a group administered with Comparative Example 1 (Anti-PD-1), a group administered with Comparative Example 2 (CCB-3233), and a group administered with Example 1 (Anti-PD-1+CCB-3233), and eight mouse models were used for each group.
Comparative Example 1 (Anti-PD-1) was diluted in 1×PBS at a concentration of 10 mg/kg and administered intraperitoneally to the mice, Comparative Example 2 (CCB-3233) was orally administered to the mice at a concentration of 50 mg/kg by dissolving 5% DMSO+5% CMC-NA in 1×PBS, and Example 1 (Anti-PD-1+CCB-3233) was diluted and prepared in different solvents as in Comparative Examples 1 and 2, and then administered sequentially.

Regarding `COc1cc2c(Oc3ccc(Nc4nn(C)cc4C(=O)NC4CCCCC4)cc3F)ccnc2cc1OCCCN1CCOCC1` [Comparative Example 2], the “therapeutic effect of the immune checkpoint inhibitor” value (CCB-3233 administered together with the immune checkpoint inhibitor to YTN 16 syngeneic mice resistant to the immune checkpoint inhibitor) is “enhanced”. The “tumor weight (FIG. 2)” value (YTN16 syngeneic mice, anti-PD-1 10 mg/kg intraperitoneally, CCB-3233 50 mg/kg orally, compared between groups) is on record as “no significant difference in tumor weight from the control group”.

Source of the values: patent US20260284065A1, “PHARMACEUTICAL COMPOSITION FOR PREVENTION OR TREATMENT OF CANCER FOR OVERCOMING RESISTANCE TO IMMUNE CHECKPOINT INHIBITORS” (AJOU UNIVERSITY INDUSTRY-ACADEMIC COOPERATION FOUNDATION, priority 2023, published 2026).
